Measurements reported in patent US20260283988A1, “FERROPTOSIS INHIBITORS” (priority 2023, published 2026).
Where two headings read alike, the source gives them in different places.

Experiments:
[1] = system: HT-1080-derived spheroids; experiment: 3D spheroid formation and imaging (roundness); format: cell-based, Human; details: 200 nM RSL3; 2 μM Fer-1; 6 μM Seratrodast, 48 h
Protocol: Over a period of 48 h spheroids were formed and subsequently treated with RSL3, and Ferrostatin-1 or Seratrodast. […] Images were acquired using an Operetta high-content imaging system (PerkinElmer) and analyses were conducted with the Columbus software (PerkinElmer). For analysis, spheroids were detected as “Image region” and morphology properties were calculated (roundness).

[2] = Cell-free BODIPY assay with AAPH; format: biochemical; details: 25 μM compound; 7.5 mM AAPH
Protocol: As a control, the same amount of DMSO was diluted in 150 μl PBS. […] For the non-oxidized control, one sample was prepared as DMSO only without AAPH. All three solutions were mixed equally and incubated for 30 min at room temperature in the dark.

HT-1080 [3] = experiment: Apoptosis assay, Staurosporine-induced Caspase 3/7 activity (Caspase-Glo 3/7); format: cell-based, Human
Protocol: For detecting apoptosis, HT-1080 were treated with Staurosporine before addition of Seratrodast or zVAD-FMK. Caspase 3/7 activity was measured 18 hours later via Caspase-Glo® 3/7 Assay Reagent (Promega) according to the manufacturer's instruction. Cells were incubated for 45 min at room temperature and luminescence was measured.

HT-1080 [4] = experiment: TBARS assay (MDA levels); format: cell-based, Human; details: 250 nM RSL3; 6 μM Seratrodast, 2.5 h
Protocol: 2 million HT-1080 cells were seeded into 150 mm dishes and grown for 48 hours. Ferroptosis was induced with RSL3 for 2.5 hours and cells were co-treated with Ferrostatin-1 or Seratrodast. Cells were detached by 0.05% Trypsin-EDTA (Thermo Fisher Scientific) and cell number was adjusted to the sample with the lowest cell count. For measuring MDA levels, TBARS (TCA Method) Assay Kit (Cayman Chemical, 700870) was used according to manufacturer's instruction. Fluorescence was detected at 530 nm/550 nm in an EnVision 2104 Multilabel plate reader (PerkinElmer).

HT-1080 [5] = experiment: Flow cytometry, 4-Hydroxynonenal (4-HNE) immunostaining; format: cell-based, Human; details: 300 nM RSL3; 6 μM Seratrodast, 2 h
Protocol: (§1) HT1080 cells were grown in 6-well plates (200,000 cells per well) and incubated for 24 h. For staining with BODIPY 581/591 C11 (Thermo Fisher Scientific), cells were treated with RSL3, and Ferrostatin-1 or Seratrodast for 2 h, then BODIPY was added into the wells to a final concentration of 2 μM. After 30 min incubation, cells were detached using Trypsin and washed two times with PBS. Between the wash steps, cells were centrifuged at 500×g for 5 minutes. After the final washing step, cell pellets were resuspended in 300 μl PBS and 10,000 events per condition were analyzed in the BL-1 channel of an Attune acoustic flow cytometer (Applied Biosystems). For detection of 4-Hydroxynonenal (4-HNE), HT-1080 were induced with RSL3, and co-treated with Ferrostatin-1 or Seratrodast for 2 h before they were detached using Trypsin. Cell pellets were incubated in 10% normal goat serum (Thermo Fisher Scientific) for 30 min on ice. Subsequently, cells were incubated with anti-4-HNE antibody (1:50 dilution in 1% BSA in PBS, ab46545, Abcam) for 1 h on ice. […] For flow cytometry, cells were collected in 300 μl PBS and 10,000 events per condition were analyzed in an Attune acoustic flow cytometer (Applied Biosystems), using the BL-1 channel. FlowJo™ v10.8.1 (BD Life Sciences) was used for creating histograms and analyzing fluorescence intensity.

[6] = system: Mouse Embryonic Fibroblasts (MEF); experiment: Necroptosis assay, TNFα + zVAD-FMK + LCL161, cell viability; format: cell-based
Protocol: For detecting necroptosis, MEF were treated with TNFα, zVAD-FMK and LCL161 before addition of Seratrodast or Necrostatin-1. Cell viability was measured after 18 hours by adding CellTiter-Glo® 2.0 Reagent (Promega) according to the manufacturer's instruction and luminescence was read out.

HT-1080 [7] = experiment: Ferroptosis inhibition, cell viability assay (CellTiter-Glo); format: cell-based, Human; details: for IC50: read-out: IC50 (Ferroptosis inhibition); for cellular efficacy/toxicity window: cytotoxic IC50 versus ferroptosis inhibition IC50, 1080 min
Protocol: Cell lines: Human fibrosarcoma cell line HT-1080 and immortalized Mouse Embryonic Fibroblasts (MEF). MEFs were a gift from Daniel Krappmann, HT-1080 were purchased from ATCC and both cell lines were grown in Dulbecco's Modified Eagle's medium (Thermo Fisher Scientific, 41966-029) supplemented with 10% fetal bovine serum (FBS, Thermo Fisher Scientific), 1% Penicillin-Streptomycin (Thermo Fisher Scientific) and 1% nonessential amino acids (MEM NEAA, Thermo Fisher Scientific). Cells were grown at 37° C. and 5% CO2.
HT-1080 were seeded into 384-well plates (CulturPlates, PerkinElmer) with a density of 750 cells per well. After 24 h of growth, cells were treated with 10 or 12-point serial dilutions of compounds in indicated concentrations for 18 h. Viability was detected by using CellTiter-Glo® 2.0 Regent (Promega) according to the manufacturer's instruction and luminescence was read out in an EnVison 2104 Multilabel plate reader (PerkinElmer).

[8] = Cytotoxicity, cell viability assay; format: cell-based, Human; details: human, ht-1080 cells, * = signal quenching at higher concentration, toxicity might be less than indicated; read-out: cytotoxic IC50
Protocol: (§2) After 24 h of growth, cells were treated with 10 or 12-point serial dilutions of compounds in indicated concentrations for 18 h.

HT-1080 [9] = experiment: Flow cytometry, BODIPY 581/591 C11 lipid peroxidation sensor; format: cell-based, Human; details: 200 nM RSL3; 6 μM Seratrodast, 2.5 h
Protocol: as §1

HT-1080 [10] = experiment: Cytotoxicity, cell viability assay; format: cell-based, Human; details: * = signal quenching at higher concentration, toxicity might be less than indicated; 1080 min; read-out: cytotoxic IC50
Protocol: as §2

[11] = Homo sapiens, HT-1080, based on the assays of example 1
[12] = based on the assays of example 1

| SMILES | IC50 (HT-1080 [7]; [11]) | Apoptosis inhibition (HT-1080 [3]) | Necroptosis inhibition [6] | cellular efficacy/toxicity window (HT-1080 [7]) | CC50 at 18 h [8] | also measured |
| --- | --- | --- | --- | --- | --- | --- |
| CCOC(=O)c1ccc(NC2CCCCC2)c(N)c1 [Ferrostatin-1] | – | – | – | – | – | inhibition of ferroptosis in 3D spheroid model (spheroid roundness) [1]: fully inhibited ferroptosis-based spheroid destruction; oxidative fluorescence induced by AAPH (cell-free C11-BODIPY) [2]: significantly reduced oxidative fluorescence |
| CC1=C(C)C(=O)C(C(CCCCCC(=O)O)c2ccccc2)=C(C)C1=O (stereo not drawn) [iQFerr01, Seratrodast, reference compound] | 290 nM | no | no | 200-fold | 57900 nM | inhibition of ferroptosis in 3D spheroid model (spheroid roundness) [1]: fully inhibited ferroptosis-based spheroid destruction; inhibition of apoptosis (HT-1080 [3]; 6 μM, 1 μM Staurosporine, 18 h): does not inhibit apoptosis; oxidative fluorescence induced by AAPH (cell-free C11-BODIPY) [2]: significantly reduced oxidative fluorescence; RSL3-induced malondialdehyde (MDA) levels (HT-1080 [4]): eliminated levels of malondialdehyde; RSL3-induced 4-hydroxynonenal (4-HNE) levels (HT-1080 [5]): reduced; inhibition of necroptosis ([6]; 6 μM, 20 ng/ml TNFα + 10 μM Z-VAD-FMK + 10 μM LCL161 for 18 h): does not inhibit necroptosis; suppression of ferroptosis (cell viability) (HT-1080 [7]; 100 nM RSL3 or 1.5 μM IKE for 18 h): dose-dependently suppresses ferroptosis; inhibition of ferroptosis induced by RSL3, IKE, FINO2 and FIN56 (HT-1080 [7]; 6 μM Seratrodast, 2 μM Fer-1, 18 h): able to suppress ferroptosis induced by all four FINs; RSL3-mediated peroxidation of the C11-BODIPY sensor (HT-1080 [9]): largely reduced |
| Cc1ccc(NC2=C(Cl)C(=O)c3ccccc3C2=O)c(C)c1 [iQFerr14, 2-chloro-3-(2,4-dimethylanilino)-1,4-naphtoquinone] | – | – | – | 5000-fold | – | IC50 (HT-1080 [7]; [12]): 0.034 nM; CC50 (HT-1080 [10]): 1000 nM |
| CC(=O)Nc1ccc(NC2=CC(=O)c3ccccc3C2=O)cc1 [iQFerr20, N-[4-(1,4-dioxo-1,4-dihydronaphthalen-2-yl-amino)phenyl]acetamide] | 8.12 nM | no | no | 1254-fold | 10200 nM | – |
| Cc1ccc(NC2=C(Cl)C(=O)c3ccccc3C2=O)c(C)c1 [iQFerr35, 2-chloro-3-[(2,4-dimethylphenyl)amino]-1,4-dihydronaphthalene-1,4-dione] | – | – | – | 8051-fold | – | IC50 (HT-1080 [7]; [12]): 0.692 nM; CC50 (HT-1080 [10]): 5570 nM |
| Cc1ccc(N(CCCCCC(=O)O)C2=CC(=O)c3ccccc3C2=O)c(C)c1 [iQFerr38, 6-[(2,4-dimethylphenyl)(1,4-dioxo-1,4-dihydronaphthalen-2-yl)amino]hexanoic acid] | 215 nM | no | no | 232-fold | 49800 nM | – |
| CC(=O)Nc1ccc(NC2=C(C)C(=O)c3ccccc3C2=O)cc1 [iQFerr39, N-{4-[(3-methyl-1,4-dioxo-1,4-dihydronaphthalen-2-yl)amino]phenyl} acetamide] | 17 nM | no | no | 2561-fold | 43500 nM | – |

More lines, main results first:

| IC50 (HT-1080 [7]; [11]) | SMILES | Apoptosis inhibition (HT-1080 [3]) | Necroptosis inhibition [6] | cellular efficacy/toxicity window (HT-1080 [7]) | CC50 at 18 h [8] | also measured |
| --- | --- | --- | --- | --- | --- | --- |
| 2.91 nM | CC1=C(Nc2ccc(C)cc2C)C(=O)c2ccccc2C1=O [iQFerr41, 2-[(2,4-dimethylphenyl)amino]-3-methyl-1,4-dihydronaphthalene-1,4-dione] | no | no | 4601-fold | 13400 nM | – |
| 116 nM | Cc1ccc(N(CCCCCC(N)=O)C2=CC(=O)c3ccccc3C2=O)c(C)c1 [iQFerr43, 6-[(2,4-dimethylphenyl)(1,4-dioxo-1,4-dihydronaphthalen-2-yl)amino]hexanamide] | no | no | 653-fold | 75400 nM | – |
| 2.11 nM | CC1=C(Nc2cc(C)cc(C)c2)C(=O)c2ccccc2C1=O [iQFerr46, 2-[(3,5-dimethylphenyl)amino]-3-methyl-1,4-dihydronaphthalene-1,4-dione] | no | no | 36758-fold | 77600 nM | – |
| 10.1 nM | Cc1ccc(NC2=C(C(F)(F)F)C(=O)c3ccccc3C2=O)c(C)c1 [iQFerr47, 2-[(2,4-dimethylphenyl)amino]-3-(trifluoromethyl)-1,4-dihydronaphthalene-1,4-dione] | no | no | 1458-fold | 14700 nM | – |
